According to article PMC7142633, “Impact of B-Ring Substitution and Acylation with Hydroxy Cinnamic Acids on the Inhibition of Porcine α-Amylase by Anthocyanin-3-Glycosides” (Foods, 2020):
Values joined by “and” are separate entries in the source; they are usually repeats but may differ in a detail not shown here. Identical values can stand only once. “Also recorded” adds a separate entry of the source. Like-named read-outs stand apart in the source and are kept apart here. Marks after values point to notes of the source that are not given here.

Columns and labels:
[1] = biological target: T1, α-amylase from porcine pancreas (Sus scrofa, UniProt P00690); test: Isothermal titration calorimetry, single injection, GalG2CNP conversion; format: biochemical; details: 100 µM inhibitor, 0.95 mM substrate, 37 °C
T1 construct: A saline suspension of α-amylase from porcine pancreas; purchased Sigma Aldrich (Steinheim, Germany) Lot #SLBN9170V (catalogue number not given); host or cells: porcine pancreas (tissue-derived)
T1 sequence (P00690 16-511): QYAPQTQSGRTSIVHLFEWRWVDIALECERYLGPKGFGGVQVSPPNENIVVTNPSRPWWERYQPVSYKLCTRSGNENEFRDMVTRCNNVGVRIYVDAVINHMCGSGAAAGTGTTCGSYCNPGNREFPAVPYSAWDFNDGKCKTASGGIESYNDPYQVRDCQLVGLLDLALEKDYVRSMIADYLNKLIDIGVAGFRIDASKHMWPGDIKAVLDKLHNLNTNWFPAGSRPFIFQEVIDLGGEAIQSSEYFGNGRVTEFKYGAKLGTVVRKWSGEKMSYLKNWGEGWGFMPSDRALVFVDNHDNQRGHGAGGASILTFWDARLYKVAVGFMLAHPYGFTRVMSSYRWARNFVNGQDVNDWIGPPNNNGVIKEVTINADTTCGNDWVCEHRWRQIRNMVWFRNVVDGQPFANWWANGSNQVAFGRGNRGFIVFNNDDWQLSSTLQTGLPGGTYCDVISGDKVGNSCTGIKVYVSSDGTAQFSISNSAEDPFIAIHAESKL
Protocol: To evaluate the inhibitory strength of 100 µM anthocyanin-3-glucosides and black carrot anthocyanins, GalG2CNP conversion to CNP was monitored by the released heat. According to the previous study, ITC measurements were carried out in a single injection experiment set-up on a MICROCALTM PEAQ-ITC calorimeter (S/N MAL1188053, Malvern Panalytical Almelo, Netherlands). Following an equilibration time of 10 min, 1 µL α-amylase (1 µM in 50 mM MES^+ buffer) was added to 0.95 mM of the substrate with or without 100 µM of the phenolic inhibitor in the cell (Vcell = 0.207 mL). The temperature was maintained at 37 °C and the sample was stirred at 750 rpm throughout. The feedback/gain mode was set to high. The resulting heat profile was transformed and the conversion rate was plotted against the substrate concentration [S] by an origin routine template provided by Malvern® for Origin version 7.

[2] = biological target: T1, α-amylase from porcine pancreas; test: α-amylase enzyme activity assay, GalG2CNP conversion, UV/Vis detection of CNP at 405 nm; format: biochemical; details: for conversion rate (v0) / inhibitory effect in UV/Vis assay: black carrot anthocyanins, 12.5−50 µM, artifact, simulated accelerated conversion; for Ki: global fit, 12.5, 25, 50 µM, UV/Vis artifact
Protocol: The enzyme activity assay, […], was established by Homoki and co-workers and already used by the authors to evaluate the inhibitory strength of different phenolic structures. To enable the evaluation of the result obtained in the present study compared to the non-anthocyanin phenolics investigated previously, the assay conditions were identical. In short, to 12 different GalG2CNP concentrations ([S] = 0−2000 µM) in MES^+ buffer, inhibitor [I] and 50 µL enzyme solution (c = 1.51 units/~100 pM, on the basis of supplier information) were mixed in a microtiter plate (Greiner BioOne, Frickenhausen, Germany; transparent, F-bottom). For blanks, the enzyme solution was substituted with MES^+ buffer. The final volume per well was 250 µL. To quantify the reaction product, a linear calibration with eight different CNP concentrations in the range of 0−35 µM was performed for each plate. Dilutions of the anthocyanin stock solutions (0.1% HCl) were equilibrated at pH 6.1 for one hour. Final inhibitor concentrations were limited due to its strong absorption at 405 nm to 12.5, 25, and 50 µM. For each anthocyanin structure, the assay was conducted on two to three different days with freshly prepared stocks of substrate, enzyme, and inhibitor.
In addition to the Michaelis Menten constant (Km) and the maximal conversion rate (vmax) values (Table S1), inhibition constants (Kic, Kiu) were calculated by fitting the data by two approaches: (i) According to the mixed inhibition equation (Equation (4)) or competitive inhibition equation (Equation (5)), applying an optimal global fit containing data from all inhibitor concentrations including the control ([I] = 0 µM); and (ii) by an independent fit according to the Michaelis Menten equation (Equation (6)), providing the apparent values Km^app and Vmax^app (Table S2) for each inhibitor concentration, which were then used to calculate the inhibition constants (Equations (7) and (8)). (4) v0= vmax/Km/[S] · (1+[I]/Kic)+(1+[I]/Kiu), (5) v0=vmax/Km/[S] · ( 1+[I]/Kic)+1, (6) v0=vmax · [S]/Km+[S], (7) Kic=vmax^app/Km^app · [I]/vmax/Km−vmax^app/Km^app, (8) Kiu=vmax^app · [I]/vmax− vmax^app.
The IC50 values of the different anthocyanins were derived from the inhibition constants for different substrate concentrations by the Cheng−Prusoff equation (Equation (9)). (9) IC50=(Km+[S])/Km/Kic+[S]/Kiu.
• KM: Michaelis Menten constant (µM) • vmax: Maximal conversion rate of the uninhibited reaction (µM/min) • v0: Observed conversion rate at given substrate and inhibitor concentration (µM/min) • [S]: Substrate concentration • [I]: Inhibitor concentration • Kic: Inhibitor constant, reflecting the competitive inhibition in the equation (µM) • Kiu: Inhibitor constant, reflecting the uncompetitive inhibition in the equation (µM) • vmax^app: Calculated maximal conversion rate, when the Michaelis Menten equation is used on an inhibited curve (µM/min) • Km^app: Calculated Michaelis Menten constant, when the Michaelis Menten equation is used on an inhibited curve (µM) • IC50: Half maximal inhibitory concentration (inhibitor concentration needed to achieve 50% inhibition; it is dependent on the substrate concentration) (µM)
For data analyses and calculations, Origin 2018b (OriginLab, software extension Enzyme Kinetics) was used. The Levenberg−Marquardt algorithm procedure was chosen for iteration. All assays were performed in two independent replicates at different dates. Values are expressed in arithmetic means ± average deviation (AD). The statistical significance and differences between groups were analyzed by one-way analysis of variance (ANOVA), followed by Tukey’s test. Differences were considered significant when p < 0.05. Data were processed using Microsoft Excel® (2010).

human salivary α-amylase = biological target: human salivary α-amylase; design: method as in PMID 26471548; details: cited from earlier work
[3] = biological target: porcine pancreatic α-amylase; design: method as in doi:10.1016/j.jff.2015.11.042; details: cited from earlier work
[4] = biological target: T1, α-amylase from porcine pancreas; details: cited from earlier work; for IC50: read-out: IC50 (Cheng−Prussoff, Equation (9)); for Kmapp / vmaxapp: Michaelis Menten fit

OC[C@H]1O[C@@H](Oc2cc3c(O)cc(O)cc3[o+]c2-c2ccc(O)c(O)c2)[C@H](O[C@@H]2OC[C@@H](O)[C@H](O)[C@H]2O)[C@@H](O)[C@H]1O [BC 2, cyanidin-3-xylosyl-galactoside]
inhibitory strength by ITC (thermogram, Michaelis Menten plot) [1]: no significant difference
conversion rate (v0) / inhibitory effect in UV/Vis assay [2]: minor inhibitory effect

COc1cc(/C=C/C(=O)OC[C@H]2O[C@@H](OC[C@H]3O[C@@H](Oc4cc5c(O)cc(O)cc5[o+]c4-c4ccc(O)c(O)c4)[C@H](O[C@@H]4OC[C@@H](O)[C@H](O)[C@H]4O)[C@@H](O)[C@H]3O)[C@H](O)[C@@H](O)[C@@H]2O)ccc1O [BC 4]
inhibitory strength by ITC (thermogram, Michaelis Menten plot) [1]: significantly stronger inhibition of BC 4 compared to the non-acylated BC 2 and Cyd-3-glc
conversion rate (v0) / inhibitory effect in UV/Vis assay [2]: inhibits best
inhibition type ([2]; from fits and Lineweaver−Burk / Hanes plots): complete competitive inhibition; also recorded: predominantly competitive inhibition
Ki ([2]; Competitive Inhibition (Equation (5)), rough estimation, read-out: Kic): ~20 µM and 20 µM
Ki ([2]; Mixed Inhibition (Equation (4)), read-out: Kiu): 98 ± 139 µM
Ki ([2]; Mixed Inhibition (Equation (4)), rough estimation, read-out: Kic): 23 ± 3 µM

C[C@@H]1O[C@@H](OC[C@H]2O[C@@H](Oc3cc4c(O)cc(O)cc4[o+]c3-c3ccc(O)c(O)c3)[C@H](O)[C@@H](O)[C@@H]2O)[C@H](O)[C@H](O)[C@H]1O [Cyd-3-rut]
IC50 (human salivary α-amylase): 200 ± 24 µM
IC50 [3]: 31 ± 7 µM

COc1cc(-c2[o+]c3cc(O)cc(O)c3cc2O[C@@H]2O[C@H](CO)[C@@H](O)[C@H](O)[C@H]2O)cc(OC)c1O [Mlv-glc, malvidin-3-glucoside]
IC50 (human salivary α-amylase): 675 ± 73 µM
inhibition type (human salivary α-amylase): competitive inhibition type
inhibitory strength by ITC (thermogram, Michaelis Menten plot) [1]: Mlv-3-glc > Cyd-3-glc > Dpd-3-glc~Peo-3-glc
Kic/Kiu ([4]; (i) global fit, Equation (4)): 0.32 ± 0.07 ^a
Ki ([4]; (i) global fit, mixed inhibition Equation (4), read-out: Kic): 44 ± 4 µM
Ki ([4]; (i) global fit, mixed inhibition Equation (4), read-out: Kiu): 143 ± 44 µM
IC50 ([4]; (i) global fit, [S] 10 µM): 46 ± 4 µM
IC50 ([4]; (i) global fit, [S] 100 µM): 58 ± 7 µM
IC50 ([4]; (i) global fit, [S] 10^3 µM): 106 ± 24 µM
IC50 ([4]; (i) global fit, [S] 10^6 µM): 143 ± 44 µM
Ki ([4]; (ii) independent Michaelis Menten fit, Equation (7), read-out: Kic): 69 ± 17 µM
Ki ([4]; (ii) independent Michaelis Menten fit, Equation (8), read-out: Kiu): 147 ± 50 µM
Kic/Kiu ([4]; (ii) independent fit, Equations (7) and (8)): 0.58 ± 0.35 ^a
IC50 ([4]; (ii) independent fit, [S] 10 µM): 71 ± 16 µM
IC50 ([4]; (ii) independent fit, [S] 100 µM): 83 ± 10 µM
IC50 ([4]; (ii) independent fit, [S] 10^3 µM): 121 ± 21 µM
IC50 ([4]; (ii) independent fit, [S] 10^6 µM): 147 ± 50 µM
Kmapp ([4]; inhibitor c 25 µM): 216 ± 3 µM
vmaxapp ([4]; inhibitor c 25 µM): 0.67 ± 0.16 µM/min
Kmapp ([4]; inhibitor c 50 µM): 337 ± 4 µM
vmaxapp ([4]; inhibitor c 50 µM): 0.60 ± 0.20 µM/min
Kmapp ([4]; inhibitor c 12,5 µM): 194 ± 22 µM
vmaxapp ([4]; inhibitor c 12,5 µM): 0.74 ± 0.24 µM/min
Ki ([4]; from apparent values, inhibitor c 25 µM, read-out: Kic): 74 ± 1 µM
Ki ([4]; from apparent values, inhibitor c 25 µM, read-out: Kiu): 150 ± 14 µM
Ki ([4]; from apparent values, inhibitor c 50 µM, read-out: Kic): 36 ± 6 µM
Ki ([4]; from apparent values, inhibitor c 50 µM, read-out: Kiu): 159 ± 66 µM
Ki ([4]; from apparent values, inhibitor c 12,5 µM, read-out: Kic): 139 µM
Ki ([4]; from apparent values, inhibitor c 12,5 µM, read-out: Kiu): 84 µM
Ki ([4]; mean over inhibitor c 12,5, 25, 50 µM (Supplementary 2), read-out: Kic mean ± SD): 83 ± 52 µM
Ki ([4]; mean over inhibitor c 12,5, 25, 50 µM (Supplementary 2), read-out: Kiu mean ± SD): 131 ± 41 µM
